# Biological target: T1, T. thermophilus Mfd (Thermus thermophilus, UniProt Q72KB4)
# T1 construct: full-length, N-terminal hexahistidine tag, plasmid pET28a-NH-TthMfd, expressed in E. coli BL21(DE3)
# T1 sequence (Q72KB4 1-978): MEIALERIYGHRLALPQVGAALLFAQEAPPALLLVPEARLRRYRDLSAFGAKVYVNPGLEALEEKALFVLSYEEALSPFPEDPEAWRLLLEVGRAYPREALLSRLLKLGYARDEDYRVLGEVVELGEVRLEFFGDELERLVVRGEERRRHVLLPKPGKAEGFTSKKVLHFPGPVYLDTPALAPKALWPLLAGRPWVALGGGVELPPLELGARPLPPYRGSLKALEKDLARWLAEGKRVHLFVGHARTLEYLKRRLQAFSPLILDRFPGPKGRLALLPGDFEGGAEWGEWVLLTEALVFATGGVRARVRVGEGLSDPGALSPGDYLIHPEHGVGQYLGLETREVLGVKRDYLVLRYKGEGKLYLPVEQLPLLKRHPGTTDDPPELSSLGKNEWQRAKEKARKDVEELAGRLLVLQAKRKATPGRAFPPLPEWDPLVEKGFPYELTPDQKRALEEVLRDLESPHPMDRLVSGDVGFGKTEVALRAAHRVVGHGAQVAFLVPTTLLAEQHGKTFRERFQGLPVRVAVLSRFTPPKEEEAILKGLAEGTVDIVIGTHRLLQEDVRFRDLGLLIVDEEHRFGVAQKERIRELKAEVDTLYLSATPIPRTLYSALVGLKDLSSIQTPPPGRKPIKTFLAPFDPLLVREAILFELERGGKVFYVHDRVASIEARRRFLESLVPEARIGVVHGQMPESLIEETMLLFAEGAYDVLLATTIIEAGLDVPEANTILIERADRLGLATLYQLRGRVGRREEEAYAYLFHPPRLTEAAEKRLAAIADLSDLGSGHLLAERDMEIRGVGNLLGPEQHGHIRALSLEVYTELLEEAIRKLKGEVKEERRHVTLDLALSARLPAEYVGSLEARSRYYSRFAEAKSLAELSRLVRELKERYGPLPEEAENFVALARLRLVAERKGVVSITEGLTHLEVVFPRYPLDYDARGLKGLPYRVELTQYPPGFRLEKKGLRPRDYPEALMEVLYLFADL
# Test: colorimetric phosphate release ATPase assay
# Assay type: biochemical
# Conditions: 10 mM MgCl2, 0.1 M KCl, pH 7.9, 37°C; 0.4-2 mM ATP
structure (smiles),measurement,value
Nc1ncnc2c1ncn2[C@@H]1O[C@H](COP(=O)(O)OP(=O)(O)OP(=O)(O)O)[C@@H](O)[C@H]1O [ATP],colorimetric phosphate release ATPase assay,ATPase activity assay verified that T. thermophilus Mfd hydrolyzed ATP

# Source: article PMC7672476, “Structural basis of Mfd-dependent transcription termination” (Nucleic Acids Research, 2020)
